Reference: PubChem BioAssay (NCI)
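96-well plates; 48 h exposure; 5 concentrations. Endpoints by linear interpolation between flanking doses. Not reached: highest tested concentration assigned. TGI: total growth inhibition.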

Experiments:
Experiment in all cases: NCI tumour cell line growth inhibition, 48 h
[1] = test system: SF-539 CNS
[2] = test system: HOP-92 NSCLC
[3] = test system: SNB-75 CNS
[4] = test system: CAKI-1 renal
[5] = test system: RXF-631 renal
[6] = test system: HOP-18 NSCLC
[7] = test system: HCT-15 colon
[8] = test system: LOX IMVI melanoma
[9] = test system: UO-31 renal
[10] = test system: LXFL 529 NSCLC
[11] = test system: IGROV1 ovarian
[12] = test system: OVCAR-5 ovarian
[13] = test system: RPMI-8226 leukemia
[14] = test system: MOLT-4 leukemia
[15] = test system: SNB-19 CNS
[16] = test system: SW-620 colon
[17] = test system: OVCAR-4 ovarian
[18] = test system: RXF 393 renal
[19] = test system: NCI-H522 lung
[20] = test system: NCI-H23 lung
[21] = test system: NCI-H226 lung
[22] = test system: KM20L2 colon
[23] = test system: HCT-116 colon
[24] = test system: CCRF-CEM leukemia
[25] = test system: SK-MEL-28 melanoma
[26] = test system: K-562 leukemia
[27] = test system: COLO 205 colon
[28] = test system: KM12 colon
[29] = test system: SK-OV-3 ovarian
[30] = test system: SK-MEL-5 melanoma
[31] = test system: SF-295 CNS
[32] = test system: HCC-2998 colon
[33] = test system: OVCAR-8 ovarian
[34] = test system: SK-MEL-2 melanoma
[35] = test system: HT29 colon
[36] = test system: SN12C renal
[37] = test system: HL-60(TB) leukemia
[38] = test system: SR leukemia
[39] = test system: TK-10 renal
[40] = test system: DU-145 prostate
[41] = test system: MALME-3M melanoma
[42] = test system: UACC-257 melanoma
[43] = test system: XF 498 CNS
[44] = test system: NCI-H460 lung
[45] = test system: SF-268 CNS
[46] = test system: 786-0 renal
[47] = test system: UACC-62 melanoma
[48] = test system: EKVX NSCLC
[49] = test system: OVCAR-3 ovarian
[50] = test system: U251 CNS
[51] = test system: A549 NSCLC
[52] = test system: M14 melanoma
[53] = test system: A498 renal
[54] = test system: ACHN renal
[55] = test system: DLD-1 colon

## Cc1ccc(S(=O)(=O)N/N=C/c2oc(-c3cccc([N+](=O)[O-])c3)c(-c3cccc([N+](=O)[O-])c3)c2[N+](=O)[O-])cc1
[1]
  TGI: > 100 µM
[2]
  TGI: > 100 µM
[3]
  TGI: > 100 µM
[4]
  TGI: > 100 µM
[5]
  TGI: > 100 µM
[6]
  TGI: > 100 µM
[7]
  TGI: > 100 µM
[8]
  TGI: 33.5 µM
[9]
  TGI: 32.3 µM
[10]
  TGI: > 100 µM
[11]
  TGI: 91.2 µM
[12]
  TGI: > 100 µM
[13]
  TGI: 67.1 µM
[14]
  TGI: 77.9 µM
[15]
  TGI: > 100 µM
[16]
  TGI: > 100 µM
[17]
  TGI: > 100 µM
[18]
  TGI: 90.1 µM
[19]
  TGI: 28.4 µM
[20]
  TGI: > 100 µM
[21]
  TGI: > 100 µM
[22]
  TGI: > 100 µM
[23]
  TGI: > 100 µM
[24]
  TGI: 56.8 µM
[25]
  TGI: > 100 µM
[26]
  TGI: 69.9 µM
[27]
  TGI: > 100 µM
[28]
  TGI: > 100 µM
[29]
  TGI: 68.5 µM
[30]
  TGI: > 100 µM
[31]
  TGI: > 100 µM
[32]
  TGI: > 100 µM
[33]
  TGI: > 100 µM
[34]
  TGI: 76.9 µM
[35]
  TGI: > 100 µM
[36]
  TGI: > 100 µM
[37]
  TGI: 57.1 µM
[38]
  TGI: 45.8 µM
[39]
  TGI: > 100 µM
[40]
  TGI: > 100 µM
[41]
  TGI: > 100 µM
[42]
  TGI: > 100 µM
[43]
  TGI: > 100 µM
[44]
  TGI: > 100 µM
[45]
  TGI: 66.7 µM
[46]
  TGI: > 100 µM
[47]
  TGI: 49.3 µM
[48]
  TGI: > 100 µM
[49]
  TGI: > 100 µM
[50]
  TGI: > 100 µM
[51]
  TGI: > 100 µM
[52]
  TGI: > 100 µM
[53]
  TGI: > 100 µM
[54]
  TGI: > 100 µM
[55]
  TGI: > 100 µM
